Source: PubChem BioAssay AID330 (DTP/NCI, 2004)
Values joined by “and” are separate entries in the source; they are usually repeats but may differ in a detail not shown here. Equal entries are not always repeated. Inconclusive results and toxic doses are left out.

Test system: P388 leukemia ip, CD2F1 mice, survival T/C
Assay: NCI In Vivo Anticancer Drug Screen. Data for tumor model P388 Leukemia (intraperitoneal) in CD2F1 (CDF1) mice
Conditions: endpoint: median survival time, higher = longer survival
Procedure, shortened: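 Mice carrying the transplanted tumor received test compound or vehicle. Survival was recorded in each group, and the value is the treated-group measurement divided by that of the vehicle-treated control group.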

[1] = dose: 50.0 mg/kg/injection, schedule: Q01DX009 (ip), vehicle: saline
[2] = dose: 100.0 mg/kg/injection, schedule: Q01DX009 (ip), vehicle: saline
[3] = dose: 200.0 mg/kg/injection, schedule: Q01DX009 (ip), vehicle: Klucel (hydroxypropylcellulose) (HPC)
[4] = dose: 200.0 mg/kg/injection, schedule: Q01DX009 (ip), vehicle: saline
[5] = dose: 100.0 mg/kg/injection, schedule: Q01DX009 (ip), vehicle: Klucel (hydroxypropylcellulose) (HPC)
[6] = dose: 60.0 mg/kg/injection, schedule: Q01DX005 (ip), vehicle: saline with Tween-80
[7] = dose: 120.0 mg/kg/injection, schedule: Q01DX005 (ip), vehicle: saline with Tween-80
[8] = dose: 240.0 mg/kg/injection, schedule: Q01DX005 (ip), vehicle: saline with Tween-80
[9] = dose: 100.0 mg/kg/injection, schedule: Q01DX001 (ip), vehicle: saline with Tween-80
[10] = dose: 200.0 mg/kg/injection, schedule: Q01DX001 (ip), vehicle: saline with Tween-80
[11] = dose: 400.0 mg/kg/injection, schedule: Q01DX001 (ip), vehicle: saline with Tween-80
[12] = dose: 200.0 mg/kg/injection, schedule: Q04DX003 (ip), vehicle: Klucel (hydroxypropylcellulose) (HPC)
[13] = dose: 50.0 mg/kg/injection, schedule: Q01DX009 (ip), vehicle: Klucel (hydroxypropylcellulose) (HPC)
[14] = dose: 100.0 mg/kg/injection, schedule: Q01DX009 (ip), vehicle: saline with Tween-80
[15] = dose: 200.0 mg/kg/injection, schedule: Q01DX009 (ip), vehicle: saline with Tween-80
[16] = dose: 50.0 mg/kg/injection, schedule: Q01DX005 (ip), vehicle: saline with Tween-80
[17] = dose: 100.0 mg/kg/injection, schedule: Q01DX005 (ip), vehicle: saline with Tween-80

O=c1c2ccccc2sc2c([N+](=O)[O-])ccc(NCCCC3CCCN4CCCCC34)c12 (stereo not drawn)
T/C (dose: 31.9 mg/kg/injection, schedule: Q01DX005 (ip), vehicle: saline with Tween-80): 100 % of control | T/C (dose: 63.8 mg/kg/injection, schedule: Q01DX005 (ip), vehicle: saline with Tween-80): 102 % of control | T/C (dose: 127.5 mg/kg/injection, schedule: Q01DX005 (ip), vehicle: saline with Tween-80): 110 % of control

CCS/C(SC)=C(/c1ccccc1)[P+](c1ccccc1)(c1ccccc1)c1ccccc1
T/C (dose: 3.12 mg/kg/injection, schedule: Q01DX005 (ip), vehicle: Klucel (hydroxypropylcellulose) (HPC)): 106 % of control | T/C (dose: 12.5 mg/kg/injection, schedule: Q01DX005 (ip), vehicle: Klucel (hydroxypropylcellulose) (HPC)): 117 % of control

O=C(O)CC[n+]1cccc2c1C(=O)C(=O)c1ncccc1-2
T/C (dose: 100.0 mg/kg/injection, schedule: Q04DX002 (ip), vehicle: saline): 114 % of control | T/C (dose: 200.0 mg/kg/injection, schedule: Q04DX002 (ip), vehicle: saline): 107 % of control

C=C1C(=O)O[C@H]2[C@H]1[C@@H](OC(=O)C=C(C)C)CC1=C[C@@H](C[C@@]3(C)O[C@@H]23)OC1=O
T/C (dose: 12.5 mg/kg/injection, schedule: Q01DX009 (ip), vehicle: saline): 92 % of control | T/C (dose: 25.0 mg/kg/injection, schedule: Q01DX009 (ip), vehicle: saline): 100 % of control | T/C [1]: 99 % of control | T/C [2]: 101 % of control

Cc1c2cc3c(cc2cc2c4cc5c(cc4cc[n+]12)OCO5)OCO3 (tested in a mixture with another compound)
T/C (dose: 0.44 mg/kg/injection, schedule: Q04DX003 (ip), vehicle: saline): 122 % of control | T/C (dose: 5.0 mg/kg/injection, schedule: Q04DX003 (ip), vehicle: saline): 154 % of control | T/C (dose: 7.5 mg/kg/injection, schedule: Q04DX003 (ip), vehicle: saline): 150 % of control

C=CCC1=CC2(OC)C(=O)C(OC)(OC)C1C1C(OC)(OC)C(=O)C(OC)=CC12CC=C (stereo not drawn)
T/C (dose: 18.75 mg/kg/injection, schedule: Q01DX009 (ip), vehicle: Klucel (hydroxypropylcellulose) (HPC)): 114 % of control and 93 % of control | T/C (dose: 37.5 mg/kg/injection, schedule: Q01DX009 (ip), vehicle: Klucel (hydroxypropylcellulose) (HPC)): 99 % of control | T/C (dose: 75.0 mg/kg/injection, schedule: Q01DX009 (ip), vehicle: Klucel (hydroxypropylcellulose) (HPC)): 102 % of control and 112 % of control | T/C (dose: 150.0 mg/kg/injection, schedule: Q01DX009 (ip), vehicle: Klucel (hydroxypropylcellulose) (HPC)): 94 % of control | T/C [3]: 94 % of control

Cc1cc(S(=O)(=O)[O-])ccc1-n1nc(C)[c-](N=Nc2cc(S(=O)(=O)[O-])ccc2C(=O)[O-])c1=O.[Cr+3].[Na+].[OH-] (stereo not drawn)
T/C [1]: 104 % of control | T/C [2]: 104 % of control | T/C [4]: 108 % of control

CCOC(=O)c1ccc(NC(C)=O)cc1
T/C [5]: 100 % of control | T/C [3]: 107 % of control | T/C (dose: 400.0 mg/kg/injection, schedule: Q01DX009 (ip), vehicle: Klucel (hydroxypropylcellulose) (HPC)): 112 % of control

CC(=O)N(c1ccncc1)c1ccc([N+](=O)[O-])cc1
T/C [6]: 94 % of control | T/C [7]: 92 % of control | T/C [8]: 88 % of control

CSc1nc(SC)c2c(C)c(Br)[nH]c2n1
T/C [9]: 94 % of control | T/C [10]: 94 % of control | T/C [11]: 89 % of control

CSc1nc(N)nc2nc[nH]c12
T/C (dose: 100.0 mg/kg/injection, schedule: Q04DX003 (ip), vehicle: saline with Tween-80): 104 % of control | T/C (dose: 200.0 mg/kg/injection, schedule: Q04DX003 (ip), vehicle: saline with Tween-80): 122 % of control

CCN(CC)c1ccc2cc(-c3nc4ccccc4n3C)c(=O)oc2c1
T/C [12]: 183 % of control

C=C(C)C12CC(C)C34OC(CCCCCCCCC)(OC1C3C1OC1(CO)C(O)C1(O)C(=O)C(C)=CC14)O2 (stereo not drawn)
T/C (dose: 3.0 micrograms/kg/injection, schedule: Q01DX009 (ip), vehicle: saline + alcohol): 107 % of control | T/C (dose: 5.0 micrograms/kg/injection, schedule: Q01DX009 (ip), vehicle: saline + alcohol): 109 % of control | T/C (dose: 10.0 micrograms/kg/injection, schedule: Q01DX009 (ip), vehicle: saline + alcohol): 105 % of control | T/C (dose: 20.0 micrograms/kg/injection, schedule: Q01DX009 (ip), vehicle: saline + alcohol): 109 % of control | T/C (dose: 40.0 micrograms/kg/injection, schedule: Q01DX009 (ip), vehicle: saline + alcohol): 116 % of control

O=C1C(=O)N(c2cccc(Cl)c2)C(=O)N1Cc1ccccc1
T/C [13]: 98 % of control | T/C [5]: 104 % of control | T/C [3]: 104 % of control

c1ccc(C23CCCCC2O3)cc1 (stereo not drawn)
T/C (dose: 60.0 mg/kg/injection, schedule: Q01DX005 (ip), vehicle: Klucel (hydroxypropylcellulose) (HPC)): 102 % of control | T/C (dose: 120.0 mg/kg/injection, schedule: Q01DX005 (ip), vehicle: Klucel (hydroxypropylcellulose) (HPC)): 107 % of control | T/C (dose: 240.0 mg/kg/injection, schedule: Q01DX005 (ip), vehicle: Klucel (hydroxypropylcellulose) (HPC)): 111 % of control

CCC(C)C1SCC(=O)N1c1nncs1 (stereo not drawn)
T/C [6]: 104 % of control | T/C [7]: 100 % of control | T/C [8]: 107 % of control

CC(=O)OC1C(=O)OCC1C(=O)N1Cc2cc3ccccc3nc2C1 (stereo not drawn)
T/C [9]: 104 % of control | T/C [10]: 101 % of control | T/C [11]: 105 % of control

CNC(=S)N/N=C/c1ccccc1
T/C (dose: 25.0 mg/kg/injection, schedule: Q01DX009 (ip), vehicle: saline with Tween-80): 110 % of control | T/C (dose: 50.0 mg/kg/injection, schedule: Q01DX009 (ip), vehicle: saline with Tween-80): 112 % of control | T/C [1]: 100 % of control | T/C [14]: 117 % of control | T/C [2]: 105 % of control | T/C [15]: 100 % of control | T/C [4]: 100 % of control

CCSc1n[nH]c(C2CCC(=O)N2Cc2ccccc2)n1 (stereo not drawn)
T/C [16]: 103 % of control | T/C [17]: 104 % of control | T/C (dose: 200.0 mg/kg/injection, schedule: Q01DX005 (ip), vehicle: saline with Tween-80): 102 % of control

O=C1C(=O)c2cccc([N+](=O)[O-])c2-c2ccccc21
T/C (dose: 12.5 mg/kg/injection, schedule: Q01DX005 (ip), vehicle: saline with Tween-80): 104 % of control and 106 % of control | T/C (dose: 25.0 mg/kg/injection, schedule: Q01DX005 (ip), vehicle: saline with Tween-80): 101 % of control and 115 % of control | T/C [16]: 107 % of control and 118 % of control | T/C [17]: 104 % of control (2×) and 95 % of control

NC(=N/C(=C/c1ccccc1)c1ccccc1)c1ccccc1
T/C [16]: 92 % of control | T/C [17]: 102 % of control

COc1ccc(NC(=O)CCC(=O)O)cc1
T/C [14]: 95 % of control | T/C [15]: 95 % of control | T/C (dose: 400.0 mg/kg/injection, schedule: Q01DX009 (ip), vehicle: saline with Tween-80): 91 % of control

CCOC(=O)c1ccc(OC)c2[nH]c3c(c(=O)c12)C(=O)c1[nH]c2c(OC)ccc(C(=O)OCC)c2c(=O)c1C3=O
T/C (dose: 100.0 mg/kg/injection, schedule: Q04DX003 (ip), vehicle: Klucel (hydroxypropylcellulose) (HPC)): 97 % of control | T/C [12]: 103 % of control | T/C (dose: 400.0 mg/kg/injection, schedule: Q04DX003 (ip), vehicle: Klucel (hydroxypropylcellulose) (HPC)): 100 % of control

Cc1ccc(N=Cc2ccccc2O)c(Br)c1
T/C [13]: 88 % of control | T/C [5]: 89 % of control | T/C [3]: 98 % of control

NC(Cc1cc(I)c(Oc2cc(I)c(O)c(I)c2)c(I)c1)C(=O)O (stereo not drawn)
T/C (dose: 0.25 mg/kg/injection, schedule: Q01DX009 (ip), vehicle: saline): 99 % of control | T/C (dose: 0.5 mg/kg/injection, schedule: Q01DX009 (ip), vehicle: saline): 103 % of control | T/C (dose: 1.0 mg/kg/injection, schedule: Q01DX009 (ip), vehicle: saline): 99 % of control | T/C (dose: 2.0 mg/kg/injection, schedule: Q01DX009 (ip), vehicle: saline): 94 % of control | T/C (dose: 4.0 mg/kg/injection, schedule: Q01DX009 (ip), vehicle: saline): 88 % of control

CN(C)/C=N\c1ncnc2c1c(C#N)cn2C1OC(CO)C(O)C1O (stereo not drawn)
T/C (dose: 7.5 mg/kg/injection, schedule: Q01DX005 (ip), vehicle: Klucel (hydroxypropylcellulose) (HPC)): 104 % of control and 112 % of control | T/C (dose: 15.0 mg/kg/injection, schedule: Q01DX005 (ip), vehicle: Klucel (hydroxypropylcellulose) (HPC)): 120 % of control and 121 % of control
